Literature values, collected in patent US20040162333A1, “Rapid absorption selective 5-HT agonist formulations” (priority 2003, published 2004).

Settings: commercially available oral triptans

Row | Structure (SMILES) | Time to Peak Effect (Tmax) [h]
1 | CN(C)CCc1c[nH]c2ccc(C[C@H]3COC(=O)N3)cc12 [Zolmitriptan (Zomig), Zolmitriptan] | 2
2 | CNS(=O)(=O)CCc1ccc2[nH]cc(C3CCN(C)CC3)c2c1 [Naratriptan (Amerge), Naratriptan] | 2 to 3
3 | CN(C)CCc1c[nH]c2ccc(CS(=O)(=O)N3CCCC3)cc12 [Almotriptan (Axert), Almotriptan] | 1 to 3
4 | CNS(=O)(=O)Cc1ccc2[nH]cc(CCN(C)C)c2c1 [Sumatriptan] | 2.5
5 | CN[C@@H]1CCc2[nH]c3ccc(C(N)=O)cc3c2C1 [Frovatriptan (Frova), Frovatriptan] | 2 to 4
6 | CN(C)CCc1c[nH]c2ccc(Cn3cncn3)cc12 [Rizatriptan (Maxalt), Rizatriptan] | 1 to 1.5
